This note sets out measurements from patent US12336537B2, “Fungicidal compositions” (SYNGENTA CROP PROTECTION AG, priority 2020, dated 2025).

Bounds are passed on as bounds.

The first experiment has as its system Glomerella lagenarium (Colletotrichum lagenarium). As to the kind of experiment: Example A3: Glomerella lagenarium (Colletotrichum lagenarium) / liquid culture (anthracnose). The experiment is classed as cell-based. The settings on record: Colletotrichum orbiculare, 3-4 days after application, compared to untreated control.
The compound `CCCCCNC(=O)c1nc(N(C#N)c2cc(F)nc(F)c2)sc1C` [X.20, 2-[cyano-(2,6-difluoro-4-pyridyl)amino]-5-methyl-N-pentyl-thiazole-4-carboxamide] displayed an inhibition of growth at 20 ppm of at least 80%.

The subject of another experiment is Mycosphaerella arachidis (Cercospora arachidicola). As to the kind of experiment: Example A7: Mycosphaerella arachidis (Cercospora arachidicola) / liquid culture (early leaf spot). In kind it is cell-based. The following applies: 4-5 days after application, compared to untreated control.
With `Cc1sc(N(C#N)c2cc(F)nc(F)c2)nc1C(=O)NCC(C)C` [X.15, 2-[cyano-(2,6-difluoro-4-pyridyl)amino]-N-isobutyl-5-methyl-thiazole-4-carboxamide], the inhibition of growth at 20 ppm was at least 80%.

A further experiment has as its system Puccinia recondita f. sp. tritici.
Test: not given
The settings on record: in Triticum aestivum, foliar, read-out: control of Puccinia recondita f, sp. tritici.
For `Cc1sc(N(C#N)c2cc(F)nc(F)c2)nc1C(=O)NC1CCC1` [X.02, 2-[cyano-(2,6-difluoro-4-pyridyl)amino]-N-cyclobutyl-5-methyl-thiazole-4-carboxamide], the pest or weed control at 200 ppm is at least 80%.

Turning to `Cc1sc(N(C#N)c2cc(F)cc(F)c2)nc1C(=O)NC1CCC1(C)C` (stereo not drawn) [X.03, 2-(N-cyano-3,5-difluoro-anilino)-N-(2,2-dimethylcyclobutyl)-5-methyl-thiazole-4-carboxamide], the pest or weed control at 200 ppm is at least 80%.

Consider `Cc1sc(N(C#N)c2cc(F)nc(F)c2)nc1C(=O)NC1CCC1(C)C` (stereo not drawn) [X.05, 2-[cyano-(2,6-difluoro-4-pyridyl)amino]-N-(2,2-dimethylcyclobutyl)-5-methyl-thiazole-4-carboxamide], for which the pest or weed control at 200 ppm is at least 80%.

`Cc1sc(N(C#N)c2cc(F)nc(F)c2)nc1C(=O)NC1CCC12CCCC2` (stereo not drawn) [X.07, 2-[cyano-(2,6-difluoro-4-pyridyl)amino]-5-methyl-N-spiro[3.4]octan-3-yl-thiazole-4-carboxamide]: the pest or weed control at 200 ppm was at least 80%.

On to `Cc1sc(N(C#N)c2cc(F)nc(F)c2)nc1C(=O)NC1CCC12Cc1ccccc1C2` (stereo not drawn) [X.08, 2-[cyano-(2,6-difluoro-4-pyridyl)amino]-5-methyl-N-spiro[cyclobutane-2,2′-indane]-1-yl-thiazole-4-carboxamide], for which the pest or weed control at 200 ppm was at least 80%.

Turning to `Cc1sc(N(C#N)c2cc(F)nc(F)c2)nc1C(=O)NC1CCC12CCC2` (stereo not drawn) [X.09, 2-[cyano-(2,6-difluoro-4-pyridyl)amino]-5-methyl-N-spiro[3.3]heptan-3-yl-thiazole-4-carboxamide], the pest or weed control at 200 ppm was at least 80%.

Turning to `Cc1sc(N(C#N)c2cc(F)nc(F)c2)nc1C(=O)NCC1(CC2CC2)CC1` [X.10, 2-[cyano-(2,6-difluoro-4-pyridyl)amino]-N-[[1-(cyclopropylmethyl)cyclopropyl]methyl]-5-methyl-thiazole-4-carboxamide], the pest or weed control at 200 ppm was at least 80%.

In the case of `Cc1sc(N(C#N)c2cc(F)cc(F)c2)nc1C(=O)NC1(C)CCCC1` [X.11, 2-(N-cyano-3,5-difluoro-anilino)-5-methyl-N-(1-methylcyclopentyl)thiazole-4-carboxamide], the pest or weed control at 200 ppm was at least 80%.

As for `Cc1sc(N(C#N)c2cc(F)nc(F)c2)nc1C(=O)NC1(C)CCCC1` [X.12, 2-[cyano-(2,6-difluoro-4-pyridyl)amino]-5-methyl-N-(1-methylcyclopentyl)thiazole-4-carboxamide], the pest or weed control at 200 ppm is at least 80%.

On to `CCCCCCNC(=O)c1nc(N(C#N)c2cc(F)nc(F)c2)sc1C` [X.14, 2-[cyano-(2,6-difluoro-4-pyridyl)amino]-N-hexyl-5-methyl-thiazole-4-carboxamide], for which the pest or weed control at 200 ppm was at least 80%.

`Cc1sc(N(C#N)c2cc(F)nc(F)c2)nc1C(=O)NCC(C)C` [X.15, 2-[cyano-(2,6-difluoro-4-pyridyl)amino]-N-isobutyl-5-methyl-thiazole-4-carboxamide]: the pest or weed control at 200 ppm is at least 80%.

Consider `Cc1sc(N(C#N)c2cc(F)nc(F)c2)nc1C(=O)NC(C)c1ccccc1` (stereo not drawn) [X.16, 2-[cyano-(2,6-difluoro-4-pyridyl)amino]-5-methyl-N-(1-phenylethyl)thiazole-4-carboxamide], for which the pest or weed control at 200 ppm was at least 80%.

As for `Cc1sc(N(C#N)c2cc(F)nc(F)c2)nc1C(=O)NCC(C)(C)C` [X.18, 2-[cyano-(2,6-difluoro-4-pyridyl)amino]-N-(2,2-dimethylpropyl)-5-methyl-thiazole-4-carboxamide], the pest or weed control at 200 ppm is at least 80%.

With `CCCCCNC(=O)c1nc(N(C#N)c2cc(F)nc(F)c2)sc1C` [X.20, 2-[cyano-(2,6-difluoro-4-pyridyl)amino]-5-methyl-N-pentyl-thiazole-4-carboxamide], the pest or weed control at 200 ppm is at least 80%.

`Cc1sc(N(C#N)c2cc(F)nc(F)c2)nc1C(=O)NCc1ccccc1` [X.23, N-benzyl-2-[cyano-(2,6-difluoro-4-pyridyl)amino]-5-methyl-thiazole-4-carboxamide]: the pest or weed control at 200 ppm is at least 80%.

`CCCCNC(=O)c1nc(N(C#N)c2cc(F)nc(F)c2)sc1C` [X.24, N-butyl-2-[cyano-(2,6-difluoro-4-pyridyl)amino]-5-methyl-thiazole-4-carboxamide]: the pest or weed control at 200 ppm was at least 80%.
